# Test results: patent publication US12528774B2, “Thiosemicarbazone compounds and uses thereof” (The Regents of the University of California, priority 2019, dated 2026)
# Tests used:
# [1] = system: normal human epithelial cell line HPDE; test: Proliferation assay in normal epithelial cell line HPDE; type: cell-based
# Method: Serum copper levels are elevated (>20 μM) in individuals with solid tumor types such as pancreatic ductal adenocarcinoma (PDAC), small cell lung carcinoma (SCLC), and prostate cancer (PC). (Refs. 43-48). These cancers rely upon elevated copper levels to sustain growth, making this transition metal a viable target for therapeutic modulation. (Ref 34).
# Proliferation assay: Cells were plated in 384-well plates (500 cells/well for adherent cell lines in 30 μl volume). Drugs were serially diluted to the desired concentrations and an equivalent volume of DMSO was added to vehicle control. Following 72 h incubation, ATP content was measured using CellTiter-Glo reagent according to manufacturer's instructions (Promega, CellTiter-Glo Luminescent Cell Viability Assay), and analyzed by SpectraMax luminometer (Molecular Devices). IC50 and IC90 values, concentrations required to inhibit proliferation by 50% and 90% respectively compared to DMSO treated cells, were calculated using Prism 6.0 h (Graphpad Software).
# [2] = system: p185BCR-ABL Arf−/− pre-B-ALL cells; test: In vivo efficacy, systemic p185 pre-B ALL model; design: species or system mouse; conditions: 1 mg/kg q.d. 8 days; fourteen days after treatment initiation
# Description: FIG. 9A: dose and schedule for the efficacy study in p185 pre-B-ALL mice. FIGS. 9B-9D: bioluminescence images and quantification of whole body radiance of mice treated with HCT-16 (n=5) or vehicle control (n=10). FIG. 9E: dose and schedule for the efficacy study in MV4-11 AML bearing mice. FIGS. 9F-9H: bioluminescence images and quantification of whole body radiance of mice treated with HCT-16 (n=5) or vehicle control (n=5). (mean±SD, n=2, student's paired t-test, * P<0.05; ** P<0.01; *** P<0.001). q.d.=once/day. For purposes of the disclosure, Cu(HCT-13) is the same as compound HCT-16 (i.e., copper complexed with HCT-13).
# The in vivo efficacy and tolerability of HCT-13 was investigated. […] Both p185 and MV4-11 cell lines were engineered to express luciferase to monitor the systemic leukemic burden by bioluminescence imaging (BLI). (Boulos et al, Blood 2011, 117(13):3585-3595; Rahmani et al, Cancer Res. 2018, 78(11):3075-3086). To bypass the need for systemic copper supplementation, a one-to-one complex of copper and HCT-13 (i.e., HCT-16) was prepared for in vivo administration according to reported procedures for similar compounds and characterized by UV-HPLC and HR-MS. […]
# In vivo leukemia models and treatment regimens. […] The leukemic burden was monitored using bioluminescence imaging. […]
# [3] = system: MIAPACA-2 cells; test: Nucleotide pool measurement by LC-MS/MS-MRM; type: cell-based, human; conditions: 25 nM HCT-13 + Cu(II), 48 hours
# Method: FIGS. 4A-4G show the chemical genomics screen identifying the replication stress response pathway as an actionable co-dependency of HCT13-treated cells. FIG. 4A: experimental design of a synthetic lethality screen using a library of protein kinase inhibitors against HCT13-treated cells in the presence of Cu(II) (20 μM). FIG. 4B: radar plot of screen results. FIG. 4C: z-score values for kinase inhibitors within the DNA damage response/replication stress response (DDR/RSR) pathway module. FIG. 4D: representative immunoblot of replication stress and cell death biomarkers in MIAPACA2 PDAC cells treated with HCT13 (10 nM)+Cu(II) (20 μM). […]
# These observations are indicative of DDR/RSR pathway activation, which was hypothesized to arise from nucleotide insufficiency and/or, given the ability of copper to generate ROS, from ROS-mediated DNA damage. […] To test the former hypothesis, nucleotide levels were measured in treated and non-treated cells using liquid chromatography-tandem mass spectrometry with multiple reaction monitoring (LC-MS/MS-MRM) as previously described by Le et al, Nature Communications 2017, 8(1):1-14. […] These findings indicate that HCT-13 preferentially decreases the dGTP and rGTP pools, potentially via oxidative processes as guanine is the most readily oxidized nucleobase. […]
compound,measurement,setting,value
"CN(C)C(=S)N/N=C/c1nccc2cc(F)ccc12 (mixture of isomers) [HCT13, (E)-2-((6-Fluoroisoquinolin-1-yl)methylene)-N,N-dimethylhydrazine-1-carbothioamide and (Z)-2-((6-Fluoroisoquinolin-1-yl)methylene)-N,N-dimethylhydrazine-1-carbothioamide]",sensitivity of normal cells versus cancer models,[1],markedly more resistant
same,systemic disease burden versus control group (bioluminescence),[2],significantly lower systemic disease burden
same,dGTP and rGTP pools,[3],decreased
